Structures are written as SMILES.

Series [1] can be described thus: Cell viability assay (CCK-8), MIA Paca-2. The series is classed as cell-based. Conditions: MIA Paca-2 cells (pancreatic carcinoma), MIA Paca-2, human pancreatic carcinoma, read-out: IC50 (μM) mean ± SD, cytotoxicity. On the procedure:
In cellular experiments, cells are seeded into either 6-well or 96-well plates and incubated overnight, proceeding with treatments as described in the figure legends or methods section. The cell inoculation numbers are outlined as follows: For assays measuring cell viability, between 3,000 to 5,000 cells are seeded per well in 96-well plates. For other cellular assays, the seeding density ranges from 5×10^5 to 1×10^6 cells per well in 6-well plates.
Cells was plated into 96-well plates and incubated overnight prior to introduction of varying concentrations of compounds or control solvent. Following a 72-hour exposure period, cell viability was determined using a Cell Counting Kit-8 assay (Life-iLab, China). Dose-response curves were fitted using a four-parameter method facilitated by SoftMax Pro, which was subsequently used for the computation of IC50 values.

The test system of series [2] is TNF-α, IL-6 and IL-1β mRNA in THP-1 cell-line-derived macrophage. Description: RT-PCR of cytokine mRNA in LPS-stimulated THP-1 derived macrophages. Conditions: THP-1 derived macrophage; 3 h pre-treatment, LPS 100 ng/mL 3 h. The class given is cell-based, human. From the text:
(§1) MK2 is recognized for inducing the production of pathological cytokines that fuel inflammation, including IL‐6, TNF‐α, and IL‐1β. These cytokines are the classic downstream target gene of MK2 and are identified as significant contributors to the risk of inflammation‐driven cancer,[34], [35], [36] such as colorectal cancer and hepatocellular carcinoma. Therefore, we assessed the transcriptional levels of these typical downstream cytokines in human monocytic THP‐1 cell‐line‐derived macrophage and the mouse RAW264.7 macrophage cell line under the influence of compound 11. […] Taken together, our findings corroborate that compound 11 effectively impedes the transcription and production of these key MK2 downstream pro‐inflammatory cytokines.
(§2) FIGURE 4 Targeting cellular MK2 signaling with irreversible inhibition by compound 11. […] (C) The inhibitory effects of compound 11 on TNF‐α and IL‐6 production in LPS‐stimulated RAW264.7 macrophages for 24 h, measured by ELISA. […]
(§3) Total RNA was extracted from cultured cells using the EZ‐press RNA Purification Kit (EZBioscience). Complementary DNA was synthesized using the ABScript III RT Master Mix for qPCR with gDNA remover (ABclonal Technology) and was quantified with primers listed in Table S5. The relative mRNA expression levels were quantified through qPCR using the SYBR green gene expression assay (ABclonal Technology).

Another series deals with T1, MK3 (Homo sapiens, UniProt Q16644).
T1 construct: purchased Eurofins (Celle Lévescault)
Kind of series: Eurofins kinase selectivity profile, MK3. The series is classed as biochemical. On the procedure: (§4) Subsequently, to ascertain whether the high potency of compound 11 was specific for MK2, an additional 380 human recombinant protein kinases were screened.
(§5) To assess the impact of various compounds on MK2 kinase activity, we utilized the ADP‐Glo Assay Kit (Promega) following the manufacturer's instructions. Luminescence measurements were taken using a SpectraMax Paradigm reader. The inhibition percentage was calculated using the following formula: ((specific signalDMSO control − specific signal inhibitor)/(specific signalDMSO control)) × 100%. The IC50 values were determined employing dose–response curve fitting via Prism (Graph Pad). Additionally, Eurofins company (Celle Lévescault) conducted the analysis on compound 11’s inhibitory activity against 380 other human recombinant kinases at various concentrations.

The next series concerns the target T2, MK5 (Homo sapiens, UniProt Q8IW41).
T2 construct: purchased Eurofins (Celle Lévescault)
T2 sequence (Q8IW41 1-473): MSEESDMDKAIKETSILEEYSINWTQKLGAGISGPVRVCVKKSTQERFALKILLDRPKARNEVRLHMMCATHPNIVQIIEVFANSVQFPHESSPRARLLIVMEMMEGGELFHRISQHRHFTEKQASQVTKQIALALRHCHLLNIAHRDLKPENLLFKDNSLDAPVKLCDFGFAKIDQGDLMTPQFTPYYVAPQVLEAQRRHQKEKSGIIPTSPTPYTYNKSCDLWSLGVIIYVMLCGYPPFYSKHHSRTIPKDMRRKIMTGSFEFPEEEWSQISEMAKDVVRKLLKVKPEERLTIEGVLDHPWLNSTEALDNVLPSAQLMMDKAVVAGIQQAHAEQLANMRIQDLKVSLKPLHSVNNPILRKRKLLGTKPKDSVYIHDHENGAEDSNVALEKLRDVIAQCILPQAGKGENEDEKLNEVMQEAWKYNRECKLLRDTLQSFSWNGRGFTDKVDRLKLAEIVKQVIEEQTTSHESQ
Kind of series: Eurofins kinase selectivity profile, MK5. The class given is biochemical. On the procedure: as §4, §5

The target of another series is MK2 (Homo sapiens, UniProt P49137). Description: MK2 kinase inhibition assay (ADP-Glo). Conditions: mean ± SD of two independent tests. The class given is biochemical. On the procedure: To assess the impact of various compounds on MK2 kinase activity, we utilized the ADP‐Glo Assay Kit (Promega) following the manufacturer's instructions. Luminescence measurements were taken using a SpectraMax Paradigm reader. The inhibition percentage was calculated using the following formula: ((specific signalDMSO control − specific signal inhibitor)/(specific signalDMSO control)) × 100%. The IC50 values were determined employing dose–response curve fitting via Prism (Graph Pad).
On the technique in general: ADP-Glo first removes unused ATP, then detects ADP through luciferase.

Series [3] concerns TNF-α, IL-6 and IL-1β mRNA in RAW264.7 macrophage cell line. Description: RT-PCR of cytokine mRNA in LPS-stimulated RAW264.7 macrophages. The class given is cell-based, mouse. Conditions: 3 h pre-treatment, LPS 100 ng/mL 3 h.
From the text: as §1, §2, §3

T1 sequence (Q16644 whole entry): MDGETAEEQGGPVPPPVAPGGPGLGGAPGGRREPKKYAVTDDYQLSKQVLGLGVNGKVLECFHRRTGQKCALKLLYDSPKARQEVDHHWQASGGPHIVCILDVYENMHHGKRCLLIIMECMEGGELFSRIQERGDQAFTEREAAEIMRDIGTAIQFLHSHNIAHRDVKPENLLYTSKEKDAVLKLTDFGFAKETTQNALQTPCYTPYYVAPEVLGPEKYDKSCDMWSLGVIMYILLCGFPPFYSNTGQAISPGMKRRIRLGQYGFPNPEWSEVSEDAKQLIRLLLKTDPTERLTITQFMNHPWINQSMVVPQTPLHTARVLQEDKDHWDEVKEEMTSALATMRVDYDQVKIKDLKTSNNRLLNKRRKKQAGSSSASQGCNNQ
MK2, sequence (P49137 whole entry): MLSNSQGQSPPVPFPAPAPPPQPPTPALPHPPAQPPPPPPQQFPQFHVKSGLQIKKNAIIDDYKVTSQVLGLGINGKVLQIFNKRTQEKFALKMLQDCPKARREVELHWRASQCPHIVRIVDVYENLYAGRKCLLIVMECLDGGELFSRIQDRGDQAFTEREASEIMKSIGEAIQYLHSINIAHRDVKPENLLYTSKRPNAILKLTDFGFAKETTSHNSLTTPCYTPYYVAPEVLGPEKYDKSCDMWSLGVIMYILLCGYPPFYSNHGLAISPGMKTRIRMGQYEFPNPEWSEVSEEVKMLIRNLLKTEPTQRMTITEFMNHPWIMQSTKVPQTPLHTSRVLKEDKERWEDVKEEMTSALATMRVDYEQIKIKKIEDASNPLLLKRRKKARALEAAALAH

`C=CC(=O)Nc1cc(-c2cc(-c3cc4c([nH]3)CCNC4=O)ccn2)ccc1OC(F)(F)F` [compound 11]: the IC50 at 72 h in series [1] worked out at 47.8 ± 2.8 µM. In addition, the “effect on LPS-induced TNF-α, IL-6 and IL-1 mRNA expression” value in series [2] and in series [3] was “significantly inhibited” each time. Besides, the IC50 on MK3 was above 100 nM; on MK5, above 100 nM; against MK2 it was 2.3 nM. The inhibition at 0.001 µM on MK3 (MAPKAP-K3(h), 1 nM, read-out: Inhibition rate) is -10%; on MK5 (MAPKAP-K5/PRAK(h), 1 nM, read-out: Inhibition rate), -21%. In addition, the inhibition at 0.01 µM was 1% at MK3 (MAPKAP-K3(h), 10 nM, read-out: Inhibition rate) and 6% on MK5 (MAPKAP-K5/PRAK(h), 10 nM, read-out: Inhibition rate). In addition, the inhibition at 0.1 µM on MK3 (MAPKAP-K3(h), 100 nM, read-out: Inhibition rate) worked out at 12%; on MK5 (MAPKAP-K5/PRAK(h), 100 nM, read-out: Inhibition rate), 29%.

One may read the IC50 as the concentration that gives 50% inhibition. The inhibition is the relative decrease from the control value, in per cent.

These data come from publication PMC11233931, “Remodeling tumor‐associated macrophage for anti‐cancer effects by rational design of irreversible inhibition of mitogen‐activated protein kinase‐activated protein kinase 2” (MedComm, 2024).
